Reference: ChEMBL document CHEMBL4011609, “Discovery of novel BRD4 inhibitors by high-throughput screening, crystallography, and cell-based assays” (Bioorg Med Chem Lett, 2017)
pIC50: −log10 of the molar value. Activity calls are given as the source filed them. The calls are words filed in the database; no cut-off is given here.

Key:
[1] = molecular target: T1, Bromodomain-containing protein 4 (Homo sapiens, UniProt O60885); assay: Inhibition of human BRD4-BD1 (49 to 170 residues) expressed in Escherichia coli BL21(DE3) using N-C:SGRG-K(Ac)-GG-K(Ac)-GLG-K(Ac)-GGA-K(Ac)-RHRKVGG-K(biotin) as substrate preincubated for 15 mins followed by substrate addition measured after 5 mins by AlphaScreen assay
MV4-11 [2] = assay: Antiproliferative activity against human MV4-11 cells after 7 days by Alamar blue assay; conditions: MV4-11, 168 h
MV4-11 [3] = assay: Cell cycle arrest in human MV4-11 cells assessed as accumulation at G2 phase at 27 uM after 24 hrs by propidium iodide/RNase staining based flow cytometry (reference value: 10.48 %); format: functional
MV4-11 [4] = assay: Cell cycle arrest in human MV4-11 cells assessed as accumulation at S phase at 27 uM after 24 hrs by propidium iodide/RNase staining based flow cytometry (reference value: 31.98 %); format: functional
[5] = molecular target: T1, Bromodomain-containing protein 4; assay: Binding affinity to human BRD4 BD1 (49 to 170 residues) expressed in Escherichia coli BL21(DE3) assessed as change in melting temperature at 200 uM by SYPRO Orange probe-based Real-Time PCR method
[6] = molecular target: T1, Bromodomain-containing protein 4; assay: Inhibition of BRD4 BD1 in human MV4-11 cells assessed as reduction in c-Myc expression after 6 hrs by Western blot method; format: cell-based
[7] = molecular target: SWI/SNF-related matrix-associated actin-dependent regulator of chromatin subfamily A member 2 (Homo sapiens) (UniProt P51531); assay: Inhibition of SMARCA2 (unknown origin) at 100 uM using acetylated lysine as substrate relative to control
[8] = molecular target: T1, Bromodomain-containing protein 4; assay: Binding affinity to human BRD4 BD1 (49 to 170 residues) expressed in Escherichia coli BL21(DE3) assessed as change in melting temperature by SYPRO Orange probe-based Real-Time PCR method
[9] = molecular target: T2, Bromodomain-containing protein 7 (Homo sapiens) (UniProt Q9NPI1); assay: Inhibition of BRD7 (unknown origin) at 50 uM using acetylated lysine as substrate relative to control
T2 sequence (whole entry): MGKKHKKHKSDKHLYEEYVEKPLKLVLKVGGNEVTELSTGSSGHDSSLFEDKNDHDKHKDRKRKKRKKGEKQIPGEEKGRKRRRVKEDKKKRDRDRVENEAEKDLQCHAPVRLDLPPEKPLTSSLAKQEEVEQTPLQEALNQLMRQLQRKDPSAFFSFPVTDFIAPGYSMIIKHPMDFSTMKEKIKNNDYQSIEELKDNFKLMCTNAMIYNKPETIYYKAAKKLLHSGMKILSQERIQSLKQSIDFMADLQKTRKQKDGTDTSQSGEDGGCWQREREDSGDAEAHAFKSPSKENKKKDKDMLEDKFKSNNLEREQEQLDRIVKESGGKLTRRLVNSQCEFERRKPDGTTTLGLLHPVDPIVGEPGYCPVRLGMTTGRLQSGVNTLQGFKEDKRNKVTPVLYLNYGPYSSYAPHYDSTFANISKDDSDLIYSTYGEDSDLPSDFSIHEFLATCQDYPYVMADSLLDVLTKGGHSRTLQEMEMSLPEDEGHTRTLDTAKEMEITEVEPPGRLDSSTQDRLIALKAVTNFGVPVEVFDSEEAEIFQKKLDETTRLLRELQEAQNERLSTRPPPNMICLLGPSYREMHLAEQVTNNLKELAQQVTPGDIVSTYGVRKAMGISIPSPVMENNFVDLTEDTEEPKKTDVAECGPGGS

[10] = molecular target: Nucleosome-remodeling factor subunit BPTF (Homo sapiens) (UniProt Q12830); assay: Inhibition of FALZ (unknown origin) at 100 uM using acetylated lysine as substrate relative to control
[11] = molecular target: T3, Bromodomain-containing protein 9 (Homo sapiens) (UniProt Q9H8M2); assay: Inhibition of BRD9 (unknown origin) at 50 uM using acetylated lysine as substrate relative to control
T3 sequence (whole entry): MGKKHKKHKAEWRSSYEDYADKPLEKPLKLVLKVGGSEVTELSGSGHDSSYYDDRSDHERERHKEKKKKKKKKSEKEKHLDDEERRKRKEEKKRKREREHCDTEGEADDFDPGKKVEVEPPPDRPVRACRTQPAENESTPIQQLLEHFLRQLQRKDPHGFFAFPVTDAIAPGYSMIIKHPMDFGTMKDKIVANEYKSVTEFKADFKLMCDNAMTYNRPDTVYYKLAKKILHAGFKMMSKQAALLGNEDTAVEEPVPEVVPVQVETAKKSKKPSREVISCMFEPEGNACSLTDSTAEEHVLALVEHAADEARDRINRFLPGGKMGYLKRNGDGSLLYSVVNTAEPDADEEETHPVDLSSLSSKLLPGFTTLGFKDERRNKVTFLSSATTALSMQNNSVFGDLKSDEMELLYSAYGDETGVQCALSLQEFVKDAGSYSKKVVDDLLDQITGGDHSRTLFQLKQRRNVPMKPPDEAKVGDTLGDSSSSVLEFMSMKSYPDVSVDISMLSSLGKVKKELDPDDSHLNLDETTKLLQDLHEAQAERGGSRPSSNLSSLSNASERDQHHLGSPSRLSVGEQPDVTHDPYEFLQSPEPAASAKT

[12] = molecular target: T1, Bromodomain-containing protein 4; assay: Inhibition of BRD4 BD1 in human MV4-11 cells assessed as reduction in CDK6 mRNA level at 10 to 30 uM after 6 hrs by Sybr green dye based qRT-PCR analysis; format: cell-based
[13] = molecular target: T1, Bromodomain-containing protein 4; assay: Inhibition of BRD4 BD1 in human MV4-11 cells assessed as reduction in c-Myc mRNA level at 10 to 30 uM after 6 hrs by Sybr green dye based qRT-PCR analysis; format: cell-based
[14] = molecular target: Nucleosome-remodeling factor subunit BPTF (Homo sapiens) (UniProt Q12830); assay: Inhibition of FALZ (unknown origin) at 50 uM using acetylated lysine as substrate relative to control
[15] = molecular target: T2, Bromodomain-containing protein 7 (Homo sapiens); assay: Inhibition of BRD7 (unknown origin) at 100 uM using acetylated lysine as substrate relative to control
MV4-11 [16] = assay: Cell cycle arrest in human MV4-11 cells assessed as accumulation at G0/G1 phase at 27 uM after 24 hrs by propidium iodide/RNase staining based flow cytometry (reference value: 57.54%); format: functional
MV4-11 [17] = assay: Antiproliferative activity against human MV4-11 cells after 3 days by Alamar blue assay; conditions: MV4-11, 72 h
MV4-11 [18] = assay: Induction of apoptosis in human MV4-11 cells assessed as live cells at 27 uM after 72 hrs by Annexin V-FITC/propidium iodide staining based flow cytometry (reference value: 92 %); format: functional
[19] = molecular target: T3, Bromodomain-containing protein 9 (Homo sapiens); assay: Inhibition of BRD9 (unknown origin) at 100 uM using acetylated lysine as substrate relative to control
MV4-11 [20] = assay: Induction of apoptosis in human MV4-11 cells assessed as apoptotic cells at 27 uM after 72 hrs by Annexin V-FITC/propidium iodide staining based flow cytometry (reference value: 3.62 %); format: functional
MV4-11 [21] = assay: Induction of apoptosis in human MV4-11 cells assessed as necrotic cells at 27 uM after 72 hrs by Annexin V-FITC/propidium iodide staining based flow cytometry (reference value: 1.68 %); format: functional
[22] = molecular target: T1, Bromodomain-containing protein 4; assay: Binding affinity to human BRD4 BD1 (49 to 170 residues) expressed in Escherichia coli BL21(DE3) assessed as change in melting temperature at 50 uM by SYPRO Orange probe-based Real-Time PCR method
[23] = molecular target: T1, Bromodomain-containing protein 4; assay: Binding affinity to human BRD4 BD1 (49 to 170 residues) expressed in Escherichia coli BL21(DE3) assessed as change in melting temperature at 100 uM by SYPRO Orange probe-based Real-Time PCR method
[24] = molecular target: SWI/SNF-related matrix-associated actin-dependent regulator of chromatin subfamily A member 2 (Homo sapiens) (UniProt P51531); assay: Inhibition of SMARCA2 (unknown origin) at 50 uM using acetylated lysine as substrate relative to control
[25] = molecular target: T1, Bromodomain-containing protein 4; assay: Inhibition of BRD4 BD1 in human MV4-11 cells assessed as reduction in Bcl-2 mRNA level at 10 to 30 uM after 6 hrs by Sybr green dye based qRT-PCR analysis; format: cell-based

SWI/SNF-related matrix-associated actin-dependent regulator of chromatin subfamily A member 2 (Homo sapiens), sequence (P51531 whole entry, the tested form may be a part): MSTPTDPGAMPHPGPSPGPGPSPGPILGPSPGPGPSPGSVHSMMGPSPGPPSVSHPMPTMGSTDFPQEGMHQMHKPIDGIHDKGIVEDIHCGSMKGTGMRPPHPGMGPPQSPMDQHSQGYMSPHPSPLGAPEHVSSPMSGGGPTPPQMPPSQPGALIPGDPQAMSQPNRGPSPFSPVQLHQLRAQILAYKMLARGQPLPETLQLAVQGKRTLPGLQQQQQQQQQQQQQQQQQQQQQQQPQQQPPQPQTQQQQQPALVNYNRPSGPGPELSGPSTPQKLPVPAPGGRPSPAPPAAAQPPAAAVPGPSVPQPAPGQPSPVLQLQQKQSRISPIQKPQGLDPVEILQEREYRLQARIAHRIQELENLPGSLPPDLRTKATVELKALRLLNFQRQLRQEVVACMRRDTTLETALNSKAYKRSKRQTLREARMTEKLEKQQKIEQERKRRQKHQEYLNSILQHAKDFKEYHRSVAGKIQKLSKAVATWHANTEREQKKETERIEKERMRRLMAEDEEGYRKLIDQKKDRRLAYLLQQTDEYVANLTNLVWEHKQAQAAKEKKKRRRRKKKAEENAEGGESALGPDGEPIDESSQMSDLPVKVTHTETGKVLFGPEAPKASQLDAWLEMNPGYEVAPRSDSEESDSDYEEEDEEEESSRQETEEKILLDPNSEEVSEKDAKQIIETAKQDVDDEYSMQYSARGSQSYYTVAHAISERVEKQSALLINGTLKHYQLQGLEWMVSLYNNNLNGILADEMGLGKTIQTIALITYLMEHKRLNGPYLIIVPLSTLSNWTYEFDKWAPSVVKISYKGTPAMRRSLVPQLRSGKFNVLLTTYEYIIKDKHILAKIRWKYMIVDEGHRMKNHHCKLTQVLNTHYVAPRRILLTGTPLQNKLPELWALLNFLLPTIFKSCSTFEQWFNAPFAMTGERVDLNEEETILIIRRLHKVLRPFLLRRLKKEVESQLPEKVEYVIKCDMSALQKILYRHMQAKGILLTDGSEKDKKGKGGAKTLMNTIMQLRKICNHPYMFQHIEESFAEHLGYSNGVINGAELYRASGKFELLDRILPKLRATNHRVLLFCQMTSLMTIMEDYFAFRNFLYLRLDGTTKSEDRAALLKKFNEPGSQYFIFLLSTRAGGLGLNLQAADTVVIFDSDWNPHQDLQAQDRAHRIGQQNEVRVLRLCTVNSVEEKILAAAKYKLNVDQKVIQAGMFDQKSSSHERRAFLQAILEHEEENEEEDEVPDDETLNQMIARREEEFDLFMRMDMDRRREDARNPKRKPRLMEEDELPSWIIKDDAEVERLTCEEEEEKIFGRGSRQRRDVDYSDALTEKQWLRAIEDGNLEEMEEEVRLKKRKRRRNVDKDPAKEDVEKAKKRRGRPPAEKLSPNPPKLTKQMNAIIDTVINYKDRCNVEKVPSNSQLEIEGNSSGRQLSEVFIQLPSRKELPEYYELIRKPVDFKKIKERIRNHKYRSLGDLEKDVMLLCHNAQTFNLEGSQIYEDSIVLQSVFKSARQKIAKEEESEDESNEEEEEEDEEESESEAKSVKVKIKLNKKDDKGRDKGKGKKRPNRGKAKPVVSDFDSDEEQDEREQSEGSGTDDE

pIC50 [1]: 6.09 | pIC50 (MV4-11 [2]): 5.00 | ΔTm [5]: 7.07 °C | inhibition [6]: Dose-dependent effect | inhibition [7]: inactive | deltaTm [8]: Dose-dependent effect | inhibition [9]: 9% | inhibition [10]: inactive | inhibition [11]: inactive | inhibition [12]: Active | inhibition [13]: Active | inhibition [14]: inactive | inhibition [15]: 16% | pIC50 (MV4-11 [17]): 4.73 | inhibition [19]: 12% | ΔTm [22]: 0.85 °C | ΔTm [23]: 3.06 °C | inhibition [24]: inactive | inhibition [25]: Active
SMILES: CN(CCCNc1cc(=O)oc2ccccc12)C(=O)c1cccs1
Activity (MV4-11 [3]): 5.84% | Activity (MV4-11 [4]): 18.93% | Activity (MV4-11 [16]): 75.23% | Activity (MV4-11 [18]): 76.2% | Activity (MV4-11 [20]): 10.7% | Activity (MV4-11 [21]): 6.9%
